# Measurements: patent US12084411B2, “Hinokitiol analogues, methods of preparing and pharmaceutical compositions thereof” (The Board of Trustees of the University of Illinois, priority 2018, dated 2024)
# What was measured:
# [1] = system: FPN1-deficient J774 macrophages; assay: 55Fe release from FPN1-deficient J774 macrophages; type: cell-based, mouse; conditions: hepcidin-treated cells
# Experimental: To knockdown FPN1 levels in wild type J774 cells, the cells were incubated with […] mouse hepcidin (Peptides International PLP-3773-PI) for 1 hour in J774 Complete media similar to previously described (41) before ^55Fe was loaded into J774 cells and ^55Fe release was determined.
# J774 cells were grown in 12-well plates to ˜80% confluency. The cells were then treated with vehicle or hepcidin in fresh J774 Complete media (1 mL) and incubated at 37° C. for 1 hour. After incubation, the media was aspirated, and then a ^55Fe2Tf (50 nM) solution in J774 Complete media (1 mL) containing vehicle or hepcidin was added. The cells were incubated at 37° C. for 10 minutes, and the media was removed. The cells were rinsed with PBS (×2), and then rinsed with J774 Complete media (1 mL) for 10 minutes at 37° C. […] At the indicated times, aliquots (<100 μL) of the media were removed, diluted in scintillation cocktail, and radioactivity was determined by liquid scintillation counting. […] The cell lysate was diluted in scintillation cocktail and intracellular ^55Fe levels were determined by liquid scintillation counting. The % ^55Fe release was determined by the ratio of extracellular ^55Fe to total (intracellular+ extracellular) ^55Fe at the indicated times.
# [2] = Hinokitiol binding selectivity by ICP-MS; conditions: for Extracted Metal 1:1 Hino:Metals: 1 mM Hino; for Extracted Metal 1:1 Hino:Metals / Extracted Metal 10:1 Hino:Metals: 1 mM of each metal; for Extracted Metal 10:1 Hino:Metals: 60 mM Hino
# Experimental: The binding selectivity for hinokitiol with multiple divalent metals was determined similar to previously described (32). […] The colored solution was allowed to incubate for 4 hours at room temperature. The solution was diluted in buffer, and extracted (×3) using 1:1 Hexanes:Ethyl Acetate. […] Control experiments were performed similar to those described above but in the absence of hinokitiol. No metal was detected in the organic layer by ICP-MS. Control experiments were also performed similar to those described above but using 60 mM hinokitiol. Metal content after extraction was compared to the initial metal content in the aqueous solution before extraction, and it was determined that the metal:hinokitiol complexes are extracted into the organic layer.
# fet3Δftr1Δ yeast = assay: Metal selectivity in yeast (ICP-MS); type: cell-based, Saccharomyces cerevisiae; conditions: 10 μM hinokitiol, 100 μM FeCl3
# Experimental: Hinokitiol-mediated changes in intracellular metal levels were determined using growth rescue conditions from FIG. 13H and an adaptation of the Fe uptake study in FIG. 1G. Specifically, wild type and fet3Δftr1Δ yeast were grown in YPD media overnight, rinsed, and incubated in SD media without FeCl3 at 30° C. for 3 hours. Yeast were then resuspended at an OD600=0.50 in SD media (50 mM MES/Tris, pH=7.0) containing 100 μM FeCl3 and either DMSO vehicle or 10 μM hinokitiol. After 2.5 hours of incubation, cells were centrifuged at 5° C., rinsed twice with cold 10 mM EDTA in 50 mM Tris/HCl buffer (pH=6.5), and once with cold metal-free water. Cells were then lyophilized for 48 hours. The lyophilized cells were digested with a 5:1 mixture of HNO3:HCl and then subjected to an automated sequential microwave digestion in a CEM Discover SP-D microwave digester. The resulting clear solution was diluted in metal-free water, and elemental analysis was performed by ICP-MS.
# [3] = system: DMT1-deficient Caco-2 monolayers; assay: 55Fe immunoprecipitation of ferritin in Caco-2 monolayers; type: cell-based, Human; conditions: apical hinokitiol 500 nM
# Experimental: Immunoprecipitation of ferritin was performed using human anti-FTL1 (Santa Cruz sc-74513) and Protein G PLUS-Agarose beads (Santa Cruz sc-2002). […] Cell lysate was incubated with primary antibody (1:100 dilution) at room temperature for 1 hour, then with the secondary antibody (1:10 dilution) at room temperature for 1 hour with constant mixing. Repeated centrifugations and PBS rinses were performed, and the radioactive levels in the agarose pellet were determined by dilution in scintillation fluid.
# fet3Δarn1-4Δ yeast = assay: Growth rescue of yeast missing all known siderophore transporters on agar plates; type: cell-based, Saccharomyces cerevisiae; conditions: 10 μM hinokitiol, 10 μM FeCl3
# Experimental: MES/Tris buffer at pH=7.0 containing 2% agarose gel, 10 μM FeCl3, and 10 μM hinokitiol (from 40X stock in DMSO). […] Yeast were grown overnight in YPD media and diluted to an optical density at 600 nm (OD600) of 1.0 in low iron SD media before 10-fold serial dilution and inoculation of these yeast suspensions (10 μL per dot) onto the low iron SD-agar plates described above containing either DMSO vehicle or hinokitiol (10 μM from 40X DMSO stock).
# [4] = system: wild type J774 macrophages; assay: 55Fe release from wild type J774 macrophages; type: cell-based, mouse; conditions: same concentration as in deficient system
# Experimental: J774 cells were grown in 12-well plates to ˜80% confluency. The cells were then treated with vehicle or hepcidin in fresh J774 Complete media (1 mL) and incubated at 37° C. for 1 hour. After incubation, the media was aspirated, and then a ^55Fe2Tf (50 nM) solution in J774 Complete media (1 mL) containing vehicle or hepcidin was added. The cells were incubated at 37° C. for 10 minutes, and the media was removed. The cells were rinsed with PBS (×2), and then rinsed with J774 Complete media (1 mL) for 10 minutes at 37° C. The media was aspirated, and J774 Complete media (1 mL) containing DMSO or small molecule (5 μM unless otherwise noted, 1000X dilution) was then added in the presence or absence of hepcidin. At the indicated times, aliquots (<100 μL) of the media were removed, diluted in scintillation cocktail, and radioactivity was determined by liquid scintillation counting. After completion of the experiment, the media was removed, the cells were rinsed with PBS, and the cells were lysed with 500 μL of 200 mM NaOH at 37° C. for 2 hours with continuous shaking (50 rpm). The cell lysate was diluted in scintillation cocktail and intracellular ^55Fe levels were determined by liquid scintillation counting. The % ^55Fe release was determined by the ratio of extracellular ^55Fe to total (intracellular+ extracellular) ^55Fe at the indicated times.
# shDMT1 Caco-2 monolayers = assay: Iron-related protein and mRNA levels in shDMT1 Caco-2 monolayers; type: cell-based, Human; conditions: hinokitiol up to 5 μM, 25 μM FeCl3, 4 hours
# Experimental: The threshold cycle values were normalized to internal control actin using primers against Fpn1 (Origene HB210988) and Fth1 (Origene HP205786) using the Pfaff1 Method and were then normalized to shDMT1 levels in the absence of hinokitiol. Caco-2 monolayers, differentiated MEL cells, or J774 cells underwent treatment as described in rescue experiments before lysis with RIPA buffer (Thermo 89901) containing protease inhibitors (Thermo 88266). Protein concentrations were determined by a BCA kit (Thermo 23225) and diluted to 2 mg/mL in the same RIPA buffer. […] Blots were thoroughly rinsed with TBST and imaged after addition of Femto Chemluminescence solution according to manufacturer instructions (Thermo Fisher 34095). For results found in FIG. 19E, protein lysate was isolated after treatment with 500 nM FeCl3 as described below. For results found in FIG. 22A, Caco-2 monolayers were treated with 25 μM FeCl3 and 0, 0.5, 1, 3, 5, 10, 25, or 50 μM hinokitiol as described below. […] Experiments for the translational and transcriptional regulated changes in endogenous proteins upon addition of increasing hinokitiol concentrations (FIG. 5F-J, FIG. 21, and FIG. 22A-L) used 25 μM of non-radioactive FeCl3 and the indicated concentration of hinokitiol (from a 1000X stock in DMSO).
structure (smiles),measurement,setting,value
CC(C)c1cccc(=O)c(O)c1 [hinokitiol],iron release,[1],time- and dose-dependently restored iron release
same,Cu^II competitively bound relative to Fe^II,[2]; 1:1 Hino:Metals,10 fold
same,Extracted Metal 1:1 Hino:Metals,[2]; Co^II,0.001 ± 0.000 µmol
same,Extracted Metal 10:1 Hino:Metals,[2]; Co^II,41 ± 0.3 µmol
same,Extracted Metal 1:1 Hino:Metals,[2]; Cu^II,45.15 ± 6.46 µmol
same,Extracted Metal 10:1 Hino:Metals,[2]; Cu^II,46 ± 0.2 µmol
same,Extracted Metal 1:1 Hino:Metals,[2]; Fe^II,4.80 ± 0.61 µmol
same,Extracted Metal 10:1 Hino:Metals,[2]; Fe^II,46 ± 0.4 µmol
same,Extracted Metal 1:1 Hino:Metals,[2]; Mn^II,0.0003 ± 0.0001 µmol
same,Extracted Metal 10:1 Hino:Metals,[2]; Mn^II,37 ± 0.8 µmol
same,Extracted Metal 10:1 Hino:Metals,[2]; Ni^II,35 ± 0.3 µmol
same,Extracted Metal 1:1 Hino:Metals,[2]; Zn^II,0.0015 ± 0.0006 µmol
same,Extracted Metal 10:1 Hino:Metals,[2]; Zn^II,38 ± 0.2 µmol
same,intracellular iron levels relative to vehicle-treated controls,fet3Δftr1Δ yeast,increased
same,"intracellular levels of manganese, cobalt, nickel, zinc, and copper",fet3Δftr1Δ yeast,unchanged
same,55Fe incorporation into ferritin,[3],allows for ^55Fe incorporation into ferritin
same,growth restoration of fet3Δarn1-4Δ yeast,fet3Δarn1-4Δ yeast,restores growth
same,effect on iron release in wild type system,[4],negligible effects
same,Fpn1 mRNA and protein levels,shDMT1 Caco-2 monolayers,decreased
same,Hif1α and Hif2α levels,shDMT1 Caco-2 monolayers,similarly decreased
same,IRP2 protein levels,shDMT1 Caco-2 monolayers,decreased
same,TfR1 (3′-IRE) protein levels,shDMT1 Caco-2 monolayers,decreased
same,ferritin subunits (5′-IREs) protein levels,shDMT1 Caco-2 monolayers,increased
